Source: patent US20240190892A1, “PLASMA KALLIKREIN INHIBITORS” (Merck Sharp & Dohme LLC, priority 2021, published 2024)
pIC50: −log10 of the molar value.

Assays:
Human plasma kallikrein = Human plasma kallikrein (Homo sapiens (Human), UniProt P03952); test: Plasma Kallikrein Assay; format: biochemical; conditions: purified Human plasma kallikrein 0.5 nM, substrate Acetyl-K-P-R-AFC, pH 7.4; read-out: PKal IC50
Description: (§1) The effectiveness of a compound of the present invention as an inhibitor of plasma kallikrein can be determined using a relevant purified serine protease, and an appropriate synthetic substrate. The rate of hydrolysis of the chromogenic or fluorogenic substrate by the relevant serine protease was measured both in the absence and presence of compounds of the present invention. Assays were conducted at rt or at 37° C. […] A decrease in the rate of fluorescence change in the presence of inhibitor is indicative of enzyme inhibition. Such methods are known to one skilled in the art. The results of this assay are expressed as the half-maximal inhibitory concentrations (IC50), or the inhibitory constant, Ki.
Plasma kallikrein determinations were made in 50 mM HEPES buffer at pH 7.4 containing 150 mM NaCl, 5 mM CaCl2, and 0.1% PEG 8000 (polyethylene glycol; Fisher Scientific). Determinations were made using purified Human plasma kallikrein at a final concentration of 0.5 nM (Enzyme Research Laboratories) and the synthetic substrate, Acetyl-K-P-R-AFC (Sigma #C6608) at a concentration of […].
Activity assays were performed by diluting a stock solution of substrate at least tenfold to a final concentration ≤0.2 Km into a solution containing enzyme or enzyme equilibrated with inhibitor. Times required to achieve equilibration between enzyme and inhibitor were determined in control experiments. The reactions were performed under linear progress curve conditions and fluorescence increase measured at 405 Ex/510 Em nm. Values were converted to percent inhibition of the control reaction (after subtracting 100% Inhibition value). IC50 was determined by inflection point from a four parameter logistic curve fit. Ki was calculated using the Cheng Prusoff equation, Ki=IC50/(1+[S]/Km)).

Coagulation factor XIa = Coagulation factor XIa (Homo sapiens (Human), UniProt P03951); test: Factor XIa Assay; format: biochemical; conditions: human factor XIa 0.04 nM, substrate GPR-AFC, 30 min pre-incubation at 25° C., pH 7.4; read-out: FXIa IC50
Sequence of Coagulation factor XIa (P03951 388-625 limits assumed): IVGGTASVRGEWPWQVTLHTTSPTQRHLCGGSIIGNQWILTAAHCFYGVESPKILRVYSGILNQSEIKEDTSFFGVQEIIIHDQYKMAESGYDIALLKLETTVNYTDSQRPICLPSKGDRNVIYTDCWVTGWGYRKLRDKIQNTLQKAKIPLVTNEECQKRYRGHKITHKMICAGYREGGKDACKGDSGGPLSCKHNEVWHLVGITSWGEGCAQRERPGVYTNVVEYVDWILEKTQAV
Sequence of Coagulation factor XIa (P03951 19-387 partner limits assumed): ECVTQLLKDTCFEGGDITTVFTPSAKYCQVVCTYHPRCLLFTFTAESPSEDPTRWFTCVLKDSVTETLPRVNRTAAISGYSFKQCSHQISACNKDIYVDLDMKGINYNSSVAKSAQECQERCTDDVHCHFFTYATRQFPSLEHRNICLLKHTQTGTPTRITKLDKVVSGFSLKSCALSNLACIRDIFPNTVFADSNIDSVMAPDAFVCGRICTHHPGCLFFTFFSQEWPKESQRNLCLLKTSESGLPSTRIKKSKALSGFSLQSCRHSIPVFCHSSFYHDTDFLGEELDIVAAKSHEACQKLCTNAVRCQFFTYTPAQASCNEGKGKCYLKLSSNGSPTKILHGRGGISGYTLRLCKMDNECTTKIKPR
Description: as §1, with “Coagulation factor XIa” for “plasma kallikrein”
Compounds were pre-incubated for 30 min at 25° C. with human (0.04 nM) factor XIa in 50 mM HEPES buffer with 150 mM sodium chloride, 5 mM calcium chloride, 0.1% PEG 8000, pH 7.4. factor XIa enzymatic activity was determined by addition of the substrate glycine-proline-arginine-7-amido-4-trifluoromethylcoumarin (GPR-AFC) and measurement of the fluorescence at 400/505 nm after a 60 min incubation at 25° C. The % inhibition for each data point was calculated from the data and analyzed using the log (inhibitor) vs. response four parameters equation to determine the half-maximal inhibitory concentrations (IC50). The IC50 were converted to equilibrium inhibitory constants (Ki) using the Cheng-Prusoff equation.

Sequence of Human plasma kallikrein (P03952 391-638 limits assumed): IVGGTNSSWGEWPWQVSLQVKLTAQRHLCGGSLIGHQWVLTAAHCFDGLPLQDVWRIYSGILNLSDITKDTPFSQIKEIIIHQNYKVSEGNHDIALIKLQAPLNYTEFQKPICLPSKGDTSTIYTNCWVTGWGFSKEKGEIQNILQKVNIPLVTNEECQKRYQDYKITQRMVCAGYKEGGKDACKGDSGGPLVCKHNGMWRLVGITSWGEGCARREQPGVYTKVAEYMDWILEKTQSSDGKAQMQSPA
Sequence of Human plasma kallikrein (P03952 20-390 partner limits assumed): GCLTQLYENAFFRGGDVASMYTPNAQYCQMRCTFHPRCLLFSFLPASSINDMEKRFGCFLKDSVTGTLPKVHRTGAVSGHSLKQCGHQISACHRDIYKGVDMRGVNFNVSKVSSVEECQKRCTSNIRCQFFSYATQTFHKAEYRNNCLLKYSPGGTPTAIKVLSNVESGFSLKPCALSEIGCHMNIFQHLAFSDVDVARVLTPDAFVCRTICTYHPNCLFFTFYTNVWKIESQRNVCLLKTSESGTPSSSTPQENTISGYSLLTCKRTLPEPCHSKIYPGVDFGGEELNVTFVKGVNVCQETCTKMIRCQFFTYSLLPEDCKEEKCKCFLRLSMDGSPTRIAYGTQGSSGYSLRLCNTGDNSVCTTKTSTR

pIC50 (Human plasma kallikrein) | pIC50 (Coagulation factor XIa) | SMILES
7.71 | 5.00 | C[C@H]1CCN(c2ccc(CNC(=O)c3cncc(N4CC[C@]5(C4)OC(=O)Nc4ccc(Cl)c(F)c45)n3)cn2)C1 [Example 1, (S)-6-(6-Chloro-5-fluoro-2-oxo-1,2-dihydrospiro[benzo[d][1,3]oxazine-4,3′-pyrrolidin]-1′-yl)-N-((6-((S)-3-methylpyrrolidin-1-yl)pyridin-3-yl)methyl)pyrazine-2-carboxamide]
9.30 | 5.00 | Cc1cnn(Cc2ccc(CNC(=O)c3cnnc(N4CC[C@]5(C4)OC(=O)Nc4ccc(Cl)c(F)c45)c3)cc2)c1 [Example 23, (S)-6-(6-Chloro-5-fluoro-2-oxo-1,2-dihydrospiro[benzo[d][1,3]oxazine-4,3′-pyrrolidin]-1′-yl)-N-(4-((4-methyl-1H-pyrazol-1-yl)methyl)benzyl)pyridazine-4-carboxamide]
7.47 | 5.00 | O=C1Nc2ccc(Cl)c(F)c2[C@]2(CCN(c3cc(C(=O)NCc4ccc(N5CCC(F)(F)C5)c(F)c4)cnn3)C2)O1 [Example 7, (S)-6-(6-Chloro-5-fluoro-2-oxo-1,2-dihydrospiro[benzo[d][1,3]oxazine-4,3′-pyrrolidin]-1′-yl)-N-(4-(3,3-difluoropyrrolidin-1-yl)-3-fluorobenzyl)pyridazine-4-carboxamide]
7.72 | 5.00 | Nc1nccc2cc(CNC(=O)c3cncc(N4CC[C@]5(C4)OC(=O)Nc4ccc(Cl)c(F)c45)n3)ccc12 [Example 32, (S)-N-((1-Aminoisoquinolin-6-yl)methyl)-6-(6-chloro-5-fluoro-2-oxo-1,2-dihydrospiro[benzo[d][1,3]oxazine-4,3′-pyrrolidin]-1′-yl)pyrazine-2-carboxamide]
7.72 | 5.00 | O=C(Cc1ccc(Cn2ccccc2=O)cc1)Nc1cncc(N2CC[C@]3(C2)OC(=O)Nc2ccc(Cl)c(F)c23)c1 [Example 52, (S)-N-(5-(6-Chloro-5-fluoro-2-oxo-1,2-dihydrospiro[benzo[d][1,3]oxazine-4,3′-pyrrolidin]-1′-yl)pyridin-3-yl)-2-(4-((2-oxopyridin-1(2H)-yl)methyl)phenyl)acetamide]
8.33 | 5.00 | Cc1cnn(Cc2ccc(CNC(=O)c3ccnc(N4CC[C@]5(C4)OC(=O)Nc4ccc(Cl)c(F)c45)c3)cc2)c1 [Example 22, (S)-2-(6-Chloro-5-fluoro-2-oxo-1,2-dihydrospiro[benzo[d][1,3]oxazine-4,3′-pyrrolidin]-1′-yl)-N-(4-((4-methyl-1H-pyrazol-1-yl)methyl)benzyl)isonicotinamide]
7.86 | 5.00 | O=C1Nc2ccc(Cl)c(F)c2[C@]2(CCN(c3cc(C(=O)NCc4ccc(CN5CC(F)C5)cc4)cnn3)C2)O1 [Example 47, (S)-6-(6-chloro-5-fluoro-2-oxo-1,2-dihydrospiro[benzo[d][1,3]oxazine-4,3′-pyrrolidin]-1′-yl)-N-(4-((3-fluoroazetidin-1-yl)methyl)benzyl)pyridazine-4-carboxamide]
8.27 | 5.00 | COCC1CN(c2ccc(CNC(=O)c3cncc(N4CC[C@]5(C4)OC(=O)Nc4ccc(Cl)c(F)c45)n3)cn2)C1 [Example 34, (S)-6-(6-Chloro-5-fluoro-2-oxo-1,2-dihydrospiro[benzo[d][1,3]oxazine-4,3′-pyrrolidin]-1′-yl)-N-((6-(3-(methoxymethyl)azetidin-1-yl)pyridin-3-yl)methyl)pyrazine-2-carboxamide]
7.30 | 5.00 | O=C1Nc2ccc(Cl)c(F)c2[C@]2(CCN(c3cc(C(=O)NCc4ccc(Cn5ccccc5=O)cc4)ccn3)C2)O1 [Example 16, (S)-2-(6-Chloro-5-fluoro-2-oxo-1,2-dihydrospiro[benzo[d][1,3]oxazine-4,3′-pyrrolidin]-1′-yl)-N-(4-((2-oxopyridin-1(2H)-yl)methyl)benzyl)isonicotinamide]
7.73 | 5.00 | O=C1Nc2ccc(Cl)c(F)c2[C@]2(CCN(c3cncc(C(=O)NCc4ccc(N5CC6CC6C5)nc4)n3)C2)O1 (stereo partly drawn) [Example 40, N-((6-(3-Azabicyclo[3.1.0]hexan-3-yl)pyridin-3-yl)methyl)-6-((S)-6-chloro-5-fluoro-2-oxo-1,2-dihydrospiro[benzo[d][1,3]oxazine-4,3′-pyrrolidin]-1′-yl)pyrazine-2-carboxamide]
7.93 | 5.00 | O=C1Nc2ccc(Cl)c(F)c2[C@]2(CCN(c3cncc(C(=O)NCc4ccc(N5CCOCC5)nc4)n3)C2)O1 [Example 42, (S)-6-(6-Chloro-5-fluoro-2-oxo-1,2-dihydrospiro[benzo[d][1,3]oxazine-4,3′-pyrrolidin]-1′-yl)-N-((6-morpholinopyridin-3-yl)methyl)pyrazine-2-carboxamide]
7.59 | 5.00 | O=C1Nc2ccc(Cl)c(F)c2[C@]2(CCN(c3cncc(C(=O)NCc4ccc(N5CC[C@@H](F)C5)nc4)n3)C2)O1 [Example 39, (S)-6-(6-Chloro-5-fluoro-2-oxo-1,2-dihydrospiro[benzo[d][1,3]oxazine-4,3′-pyrrolidin]-1′-yl)-N-((6-((R)-3-fluoropyrrolidin-1-yl)pyridin-3-yl)methyl)pyrazine-2-carboxamide]
8.12 | 5.00 | O=C1Nc2ccc(Cl)c(F)c2[C@]2(CCN(c3cc(C(=O)NCc4ccc(N5CCC(C(F)(F)F)C5)nc4)cnn3)C2)O1 (stereo in doubt) [Example 9, (S)-6-(6-Chloro-5-fluoro-2-oxo-1,2-dihydrospiro[benzo[d][1,3]oxazine-4,3′-pyrrolidin]-1′-yl)-N-((6-(3-(trifluoromethyl)pyrrolidin-1-yl)pyridin-3-yl)methyl)pyridazine-4-carboxamide]
7.89 | 5.00 | Cc1cnn(Cc2ccc(CNC(=O)c3cncc(N4CC[C@]5(C4)OC(=O)Nc4ccc(Cl)c(F)c45)n3)cc2)c1 [Example 18, (S)-6-(6-Chloro-5-fluoro-2-oxo-1,2-dihydrospiro[benzo[d][1,3]oxazine-4,3′-pyrrolidin]-1′-yl)-N-(4-((4-methyl-1H-pyrazol-1-yl)methyl)benzyl)pyrazine-2-carboxamide]
8.17 | 5.00 | O=C1Nc2ccc(Cl)c(F)c2[C@]2(CCN(c3cncc(C(=O)NCc4ccc(N5CCCC5)nc4)n3)C2)O1 [Example 2, (S)-6-(6-Chloro-5-fluoro-2-oxo-1,2-dihydrospiro[benzo[d][1,3]oxazine-4,3′-pyrrolidin]-1′-yl)-N-((6-(pyrrolidin-1-yl)pyridin-3-yl)methyl)pyrazine-2-carboxamide]
7.35 | 5.00 | O=C1Nc2ccc(Cl)c(F)c2[C@]2(CCN(c3cncc(C(=O)NCc4ccc(N5CCC5)nc4)n3)C2)O1 [Example 37, (S)-N-((6-(Azetidin-1-yl)pyridin-3-yl)methyl)-6-(6-chloro-5-fluoro-2-oxo-1,2dihydrospiro[benzo[d][1,3]oxazine-4,3′-pyrrolidin]-1′-yl)pyrazine-2-carboxamide]
8.23 | 5.00 | CC(C)N(C)Cc1ccc(CNC(=O)c2cnnc(N3CC[C@]4(C3)OC(=O)Nc3ccc(Cl)c(F)c34)c2)cc1 [Example 48, (S)-6-(6-Chloro-5-fluoro-2-oxo-1,2-dihydrospiro[benzo[d][1,3]oxazine-4,3′-pyrrolidin]-1′-yl)-N-(4-((isopropyl(methyl)amino)methyl)benzyl)pyridazine-4-carboxamide]
8.40 | 5.00 | O=C1Nc2ccc(Cl)c(F)c2[C@]2(CCN(c3cc(C(=O)NCc4ccc(N5CCC(F)(F)C5)nc4)cnn3)C2)O1 [Example 6, (S)-6-(6-Chloro-5-fluoro-2-oxo-1,2-dihydrospiro[benzo[d][1,3]oxazine-4,3′-pyrrolidin]-1′-yl)-N-((6-(3,3-difluoropyrrolidin-1-yl)pyridin-3-yl)methyl)pyridazine-4-carboxamide]
